Assay results published in US20070134693A1, “Method for modulating the binding activity of a novel ICAM-3 binding receptor on sinusoidal endothelial cells in liver and lymph nodes” (priority 2000, published 2007).

Key:
Type in all cases: cell-based
L-SIGN [1] = molecular target: T1, L-SIGN (Homo sapiens, UniProt Q9H2X3); experiment: Fluorescent beads adhesion assay, K562-L-SIGN cells; conditions: for inhibition of adhesion of ICAM-3-coated fluorescent beads to L-SIGN: FIG. 4A; for inhibition of adhesion of HIV-1 gp120-coated fluorescent beads to L-SIGN: FIG. 4B
T1 construct: The L-SIGN cDNA clone isolated from placental mRNA contained the entire coding region of the gene; expressed in transfected cells
T1 sequence (Q9H2X3 1-376 isoform Q9H2X3-8): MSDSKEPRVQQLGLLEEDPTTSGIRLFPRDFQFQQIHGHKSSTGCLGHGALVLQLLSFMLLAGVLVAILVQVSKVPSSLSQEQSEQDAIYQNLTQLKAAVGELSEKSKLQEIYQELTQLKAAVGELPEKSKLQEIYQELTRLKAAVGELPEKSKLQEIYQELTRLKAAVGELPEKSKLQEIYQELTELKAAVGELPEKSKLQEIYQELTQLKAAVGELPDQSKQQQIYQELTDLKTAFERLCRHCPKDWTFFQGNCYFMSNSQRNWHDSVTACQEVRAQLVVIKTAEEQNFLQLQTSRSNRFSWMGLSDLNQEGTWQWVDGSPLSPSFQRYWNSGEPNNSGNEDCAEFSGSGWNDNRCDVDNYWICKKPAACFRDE
Method: (§1) FIG. 4. L-SIGN binds ICAM-3 (A) and HIV-1 gp120 (B). Adhesion of ICAM-3 and gp120 to the K562-L-SIGN and K562-DC-SIGN cells was measured with the fluorescent bead adhesion assay (Geijtenbeek, T. B. et al., 1999, Blood 94:754-764). The y-axis represents the percent cells binding ligand-coated fluorescent beads. The L-SIGN-cross-reacting mAb AZN-D2 (20 μg/ml) and AZN-D3 (20 μg/ml) inhibit the adhesion of ICAM-3 and gp120 to L-SIGN, in contrast to the DC-SIGN-specific mAb AZN-D1 (20 μg/ml). […] Adhesion of both ligands to mock transfectants was less than 5%. One representative experiment out of three is shown (SD<5%).
(§2) Carboxylate-modified TransFluorSpheres (488/645 nm, 1.0 μm; Molecular Probes, Eugene, Oreg.) were coated with ICAM-3 as was previously described for ICAM-1 (Geijtenbeek, T. B. et al., 1999, Blood 94:754-764). Fluorescent beads were coated with M-tropic HIV-1MN envelope glycoprotein gp120 as follows: Streptavidin-coated fluorescent beads were incubated with biotinylated F(ab′)2 fragment rabbit anti-sheep IgG (6 μg/ml; Jackson Immunoresearch) followed by an overnight incubation with sheep-anti-gp120 antibody D7324 (Aalto Bio Reagents Ltd, Dublin, Ireland) at 4° C. The beads were washed and incubated with 250 ng/ml purified HIV-1 gp120 (provided by Immunodiagnostics, Inc through the NIH AIDS Research and Reference Reagent Program) overnight at 4° C.
(§3) The fluorescent beads adhesion assay was performed as described by Geijtenbeek et al.(l999, supra). Briefly, cells were resuspended in adhesion buffer (20 mM Tris-HCl pH 8.0, 150 mM NaCl, 1 mM CaCl2, 2 mM MgCl2, 0.5% BSA) at a final concentration of 5×10^6 cells/ml. 50,000 cells were pre-incubated with mAb (20 μg/ml) for 10 min at room temperature. Ligand-coated fluorescent beads (20 beads/cell) were added and the suspension was incubated for 30 min at 37° C. Adhesion was determined by measuring the percentage of cells that bound fluorescent beads using flow cytometry on a FACScan (Becton Dickinson, Oxnard, Calif.).

DC-SIGN [2] = molecular target: T2, DC-SIGN (Homo sapiens, UniProt Q9NNX6); experiment: Fluorescent beads adhesion assay, K562-DC-SIGN cells; conditions: for inhibition of adhesion of ICAM-3-coated fluorescent beads to DC-SIGN: FIG. 4A; for inhibition of adhesion of HIV-1 gp120-coated fluorescent beads to DC-SIGN: FIG. 4B
T2 construct: expressed in transfected cells
T2 sequence (Q9NNX6 1-404): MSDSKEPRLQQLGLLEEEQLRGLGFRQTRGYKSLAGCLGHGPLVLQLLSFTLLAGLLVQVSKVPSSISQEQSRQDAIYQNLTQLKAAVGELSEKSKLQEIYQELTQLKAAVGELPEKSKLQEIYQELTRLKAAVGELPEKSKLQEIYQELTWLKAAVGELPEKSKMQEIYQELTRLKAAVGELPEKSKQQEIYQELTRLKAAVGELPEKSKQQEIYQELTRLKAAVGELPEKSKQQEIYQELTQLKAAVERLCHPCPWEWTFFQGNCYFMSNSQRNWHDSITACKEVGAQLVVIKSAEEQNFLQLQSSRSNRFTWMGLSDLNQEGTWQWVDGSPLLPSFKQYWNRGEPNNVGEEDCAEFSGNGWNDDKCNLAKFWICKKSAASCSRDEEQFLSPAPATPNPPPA
Method: as §1, §2, §3

DC-SIGN [3] = molecular target: T2, DC-SIGN; experiment: HIV-1 enhancement assay, pseudotyped HIV-1 ADA, HEK293T cells expressing DC-SIGN co-cultured with activated T cells; conditions: preincubation 20 μg/ml, after two days, FIG. 5B
Method: (§4) FIG. 5. L-SIGN captures and enhances infection of T cells with HIV-1 in trans. (A) L-SIGN captures HIV-1 and transmits it to target cells. Stable DC-SIGN or L-SIGN expressing THP-1 transfectants were pre-incubated with HIV-luc/JRFL pseudovirions to allow capture of the virus. Cells were washed and THP-1 transfectants were co-cultured with Hut/CCR5 target cells. Cell lysates were obtained after 3 days and analyzed for luciferase activity. For each of the co-culture conditions employed, mock infected controls were uniformly less than 100 counts per second in activity. Each data set represents the mean of four separate wells of infected cells. One representative experiment out of two is shown. […] Infectivity was determined after two days by measuring luciferase activity. […] Culture supernatants were collected at day 14 after K562-T cell co-culture and HIV-1 production was measured using ELISA to determine p24 antigen levels. […]
(§5) The infection assays were performed as described previously (Geijtenbeek, 2000a, supra; Geijtenbeek 2000b, supra). […] Viral stocks were evaluated by limiting dilution on GHOST CXCR4/CCR5 and 293T-CD4-CCR5 cells.
(§6) In contrast, HIV-1 enhancement assays utilized suboptimal concentrations of virus (typically <0.05 m.o.i.) without a wash step. […] Cell lysates were obtained after several days and analyzed for either luciferase activity or p24 antigen levels. […]

L-SIGN [4] = molecular target: T1, L-SIGN; experiment: HIV-1 enhancement assay, pseudotyped HIV-1 ADA, HEK293T cells expressing L-SIGN co-cultured with activated T cells; conditions: preincubation 20 μg/ml, after two days, FIG. 5B
Method: as §4, §5, §6

Row | Molecule | inhibition of adhesion of ICAM-3-coated fluorescent beads to L-SIGN (L-SIGN [1]; 20 μg/ml) | inhibition of adhesion of HIV-1 gp120-coated fluorescent beads to L-SIGN (L-SIGN [1]; 20 μg/ml) | inhibition of adhesion of ICAM-3-coated fluorescent beads to DC-SIGN (DC-SIGN [2]; 20 μg/ml) | inhibition of adhesion of HIV-1 gp120-coated fluorescent beads to DC-SIGN (DC-SIGN [2]; 20 μg/ml) | inhibition of DC-SIGN-mediated enhancement of HIV-1 infection of T cells in trans (luciferase activity) (DC-SIGN [3]) | inhibition of L-SIGN-mediated enhancement of HIV-1 infection of T cells in trans (luciferase activity) (L-SIGN [4]) | inhibition of adhesion of ICAM-3-coated fluorescent beads to L-SIGN (L-SIGN [1]; 5 mM) | inhibition of adhesion of HIV-1 gp120-coated fluorescent beads to L-SIGN (L-SIGN [1]; 5 mM) | inhibition of adhesion of ICAM-3-coated fluorescent beads to DC-SIGN (DC-SIGN [2]; 5 mM) | inhibition of adhesion of HIV-1 gp120-coated fluorescent beads to DC-SIGN (DC-SIGN [2]; 5 mM)
1 | mannan | inhibited | inhibited | inhibited | inhibited | efficiently inhibited | efficiently inhibited | – | – | – | –
2 | O=C(O)CN(CCOCCOCCN(CC(=O)O)CC(=O)O)CC(=O)O [EGTA] | – | – | – | – | – | – | inhibited | inhibited | inhibited | inhibited
